Source: patent US7964531B2, “3-phenoxy-4-pyridazinol derivatives and herbicidal composition containing the same” (Mitsui Chemicals Agro, Inc., priority 2001, dated 2011)

Tests used:
Type in all cases: in vivo
Details in all cases: wettable powder applied 3 days after transplanting, judged after 25 days
[1] = test system: transplanted paddy-field rice; experiment: Test Example 1: crop injury against transplanted paddy-field rice
Experimental: (§1) A paddy soil was filled in 1/10,000 are pot, and seeds of barnyardgrass (Echinochloa oryzicola Vasing.), Scirpus joncoides and annual broad-leaved weeds (Lindernia spp., Rotala indica) which are awaken from dormancy were mixed at the surface layer of 1 cm. Also, tuber of Cyperus serotinus which is germinated was planted, and further seedlings of paddy-field rice at 2.2-leaf stage were transplanted, and they were grown under the flooded condition in a greenhouse. After 3 days from transplanting, a predetermined chemical dosage of the wettable powder prepared in accordance with Preparation example 1 was diluted in water, and the solution was applied to the pot and herbicidal effects and crop injury against transplanted paddy-field rice were judged after 25 days from the treatment. Also, 3-(2-allylphenoxy)-6-chloro-4-methoxypyridazine described in Chemical Pharmaceutical Bulletin, 1972, vol. 20, No. 10, pp. 2191-2203 was used as Comparative compound. Incidentally, herbicidal effects and crop injury against transplanted paddy-field rice were judged by the following judgment standard, and “-” in the table means no test was carried out.
(§2) Judgment Standard • 0: Growth inhibition rate; 0 to 10% • 1: Growth inhibition rate; 11 to 30% • 2: Growth inhibition rate; 31 to 50% • 3: Growth inhibition rate; 51 to 70% • 4: Growth inhibition rate; 71 to 90% • 5: Growth inhibition rate; 91 to 100%.

Cyperus serotinus = experiment: Test Example 1: herbicidal effects, paddy-field pot test
Experimental: as §1, §2

[2] = test system: barnyardgrass (Echinochloa oryzicola Vasing.); experiment: as above
Experimental: as §1, §2

[3] = test system: annual broad-leaved weeds (Lindernia spp., Rotala indica); experiment: as above
Experimental: as §1, §2

Scirpus joncoides = experiment: as above
Experimental: as §1, §2

| Structure (SMILES) | Crop injury against transplanted rice ([1]; chemical dosage 10 g/a) | Crop injury against transplanted rice ([1]; chemical dosage 20 g/a) | Herbicidal effects Cyperus serotinus (Cyperus serotinus; chemical dosage 10 g/a) | Herbicidal effects Cyperus serotinus (Cyperus serotinus; chemical dosage 20 g/a) | Herbicidal effects Barnyard grass ([2]; chemical dosage 10 g/a) | Herbicidal effects Barnyard grass ([2]; chemical dosage 20 g/a) | Herbicidal effects Broad leaf ([3]; chemical dosage 10 g/a) | Herbicidal effects Broad leaf ([3]; chemical dosage 20 g/a) | Herbicidal effects Scirpus joncoides (Scirpus joncoides; chemical dosage 10 g/a) | Herbicidal effects Scirpus joncoides (Scirpus joncoides; chemical dosage 20 g/a) | further results |
| --- | --- | --- | --- | --- | --- | --- | --- | --- | --- | --- | --- |
| Oc1cc(Cl)nnc1Oc1cc(Cl)ccc1C1CC1 [Example 217] | 0 (Growth inhibition rate; 0 to 10%) | 0 (Growth inhibition rate; 0 to 10%) | 5 (Growth inhibition rate; 91 to 100%) | 5 (Growth inhibition rate; 91 to 100%) | 2 (Growth inhibition rate; 31 to 50%) | 4 (Growth inhibition rate; 71 to 90%) | 5 (Growth inhibition rate; 91 to 100%) | 5 (Growth inhibition rate; 91 to 100%) | 5 (Growth inhibition rate; 91 to 100%) | 5 (Growth inhibition rate; 91 to 100%) | – |
| CCc1cccc(Cl)c1Oc1nnc(Cl)cc1O [Example 243] | – | – | – | – | – | – | – | – | – | – | Crop injury against transplanted rice ([1]; chemical dosage 12.5 g/a): 0 (Growth inhibition rate; 0 to 10%); Crop injury against transplanted rice ([1]; chemical dosage 25 g/a): 0 (Growth inhibition rate; 0 to 10%); Herbicidal effects Cyperus serotinus (Cyperus serotinus; chemical dosage 12.5 g/a): 5 (Growth inhibition rate; 91 to 100%); Herbicidal effects Cyperus serotinus (Cyperus serotinus; chemical dosage 25 g/a): 5 (Growth inhibition rate; 91 to 100%); Herbicidal effects Barnyard grass ([2]; chemical dosage 12.5 g/a): 1 (Growth inhibition rate; 11 to 30%); Herbicidal effects Barnyard grass ([2]; chemical dosage 25 g/a): 2 (Growth inhibition rate; 31 to 50%); Herbicidal effects Broad leaf ([3]; chemical dosage 12.5 g/a): 5 (Growth inhibition rate; 91 to 100%); Herbicidal effects Broad leaf ([3]; chemical dosage 25 g/a): 5 (Growth inhibition rate; 91 to 100%); Herbicidal effects Scirpus joncoides (Scirpus joncoides; chemical dosage 12.5 g/a): 4 (Growth inhibition rate; 71 to 90%); Herbicidal effects Scirpus joncoides (Scirpus joncoides; chemical dosage 25 g/a): 4 (Growth inhibition rate; 71 to 90%) |
| Cc1ccccc1Oc1nnc(Cl)cc1OC(=O)c1ccccc1 [Example 328] | 0 (Growth inhibition rate; 0 to 10%) | 0 (Growth inhibition rate; 0 to 10%) | 5 (Growth inhibition rate; 91 to 100%) | 5 (Growth inhibition rate; 91 to 100%) | 3 (Growth inhibition rate; 51 to 70%) | 4 (Growth inhibition rate; 71 to 90%) | 3 (Growth inhibition rate; 51 to 70%) | 5 (Growth inhibition rate; 91 to 100%) | 3 (Growth inhibition rate; 51 to 70%) | 5 (Growth inhibition rate; 91 to 100%) | – |
| CCOC(=O)Oc1cc(Cl)nnc1Oc1ccccc1C1CC1 [Example 347] | 0 (Growth inhibition rate; 0 to 10%) | 0 (Growth inhibition rate; 0 to 10%) | 5 (Growth inhibition rate; 91 to 100%) | 5 (Growth inhibition rate; 91 to 100%) | 3 (Growth inhibition rate; 51 to 70%) | 4 (Growth inhibition rate; 71 to 90%) | 5 (Growth inhibition rate; 91 to 100%) | 5 (Growth inhibition rate; 91 to 100%) | 5 (Growth inhibition rate; 91 to 100%) | 5 (Growth inhibition rate; 91 to 100%) | – |
| CCc1cccc(C)c1Oc1nnc(Cl)cc1O [Example 260] | 0 (Growth inhibition rate; 0 to 10%) | 0 (Growth inhibition rate; 0 to 10%) | 5 (Growth inhibition rate; 91 to 100%) | 5 (Growth inhibition rate; 91 to 100%) | 2 (Growth inhibition rate; 31 to 50%) | 3 (Growth inhibition rate; 51 to 70%) | 5 (Growth inhibition rate; 91 to 100%) | 5 (Growth inhibition rate; 91 to 100%) | 5 (Growth inhibition rate; 91 to 100%) | 5 (Growth inhibition rate; 91 to 100%) | – |
| CCc1ccccc1Oc1nnc(Cl)cc1O [Example 55] | – | – | – | – | – | – | – | – | – | – | Crop injury against transplanted rice ([1]; chemical dosage 12.5 g/a): 0 (Growth inhibition rate; 0 to 10%); Crop injury against transplanted rice ([1]; chemical dosage 25 g/a): 0 (Growth inhibition rate; 0 to 10%); Herbicidal effects Cyperus serotinus (Cyperus serotinus; chemical dosage 12.5 g/a): 5 (Growth inhibition rate; 91 to 100%); Herbicidal effects Cyperus serotinus (Cyperus serotinus; chemical dosage 25 g/a): 5 (Growth inhibition rate; 91 to 100%); Herbicidal effects Barnyard grass ([2]; chemical dosage 12.5 g/a): 2 (Growth inhibition rate; 31 to 50%); Herbicidal effects Barnyard grass ([2]; chemical dosage 25 g/a): 2 (Growth inhibition rate; 31 to 50%); Herbicidal effects Broad leaf ([3]; chemical dosage 12.5 g/a): 5 (Growth inhibition rate; 91 to 100%); Herbicidal effects Broad leaf ([3]; chemical dosage 25 g/a): 5 (Growth inhibition rate; 91 to 100%); Herbicidal effects Scirpus joncoides (Scirpus joncoides; chemical dosage 12.5 g/a): 3 (Growth inhibition rate; 51 to 70%); Herbicidal effects Scirpus joncoides (Scirpus joncoides; chemical dosage 25 g/a): 4 (Growth inhibition rate; 71 to 90%) |
| CN(C)C(=O)Oc1cc(Cl)nnc1Oc1ccccc1C1CC1 [Example 352] | – | 0 (Growth inhibition rate; 0 to 10%) | – | – | – | 4 (Growth inhibition rate; 71 to 90%) | – | 5 (Growth inhibition rate; 91 to 100%) | – | 5 (Growth inhibition rate; 91 to 100%) | – |
| CC(C)c1cccc(C(C)C)c1Oc1nnc(Cl)cc1O [Example 271] | – | – | – | – | – | – | – | – | – | – | Herbicidal effects Cyperus serotinus (Cyperus serotinus; chemical dosage 12.5 g/a): 3 (Growth inhibition rate; 51 to 70%); Herbicidal effects Cyperus serotinus (Cyperus serotinus; chemical dosage 25 g/a): 4 (Growth inhibition rate; 71 to 90%); Herbicidal effects Barnyard grass ([2]; chemical dosage 12.5 g/a): 1 (Growth inhibition rate; 11 to 30%); Herbicidal effects Barnyard grass ([2]; chemical dosage 25 g/a): 2 (Growth inhibition rate; 31 to 50%); Herbicidal effects Broad leaf ([3]; chemical dosage 12.5 g/a): 5 (Growth inhibition rate; 91 to 100%); Herbicidal effects Broad leaf ([3]; chemical dosage 25 g/a): 5 (Growth inhibition rate; 91 to 100%); Herbicidal effects Scirpus joncoides (Scirpus joncoides; chemical dosage 12.5 g/a): 2 (Growth inhibition rate; 31 to 50%); Herbicidal effects Scirpus joncoides (Scirpus joncoides; chemical dosage 25 g/a): 4 (Growth inhibition rate; 71 to 90%) |
| CCc1ccc(C2CC2)c(Oc2nnc(Cl)cc2O)c1 [Example 219] | 0 (Growth inhibition rate; 0 to 10%) | 0 (Growth inhibition rate; 0 to 10%) | – | – | 3 (Growth inhibition rate; 51 to 70%) | 4 (Growth inhibition rate; 71 to 90%) | 5 (Growth inhibition rate; 91 to 100%) | 5 (Growth inhibition rate; 91 to 100%) | 5 (Growth inhibition rate; 91 to 100%) | 5 (Growth inhibition rate; 91 to 100%) | – |
| Cc1cc(C)c(Oc2nnc(Cl)cc2O)c(Br)c1 [Example 315] | – | 0 (Growth inhibition rate; 0 to 10%) | – | 5 (Growth inhibition rate; 91 to 100%) | – | 4 (Growth inhibition rate; 71 to 90%) | – | 5 (Growth inhibition rate; 91 to 100%) | – | – | – |
| Oc1cc(Cl)nnc1Oc1c(Br)cccc1Br [Example 248] | 0 (Growth inhibition rate; 0 to 10%) | – | 5 (Growth inhibition rate; 91 to 100%) | – | 3 (Growth inhibition rate; 51 to 70%) | – | 5 (Growth inhibition rate; 91 to 100%) | – | – | – | Crop injury against transplanted rice ([1]; chemical dosage 5 g/a): 0 (Growth inhibition rate; 0 to 10%); Herbicidal effects Cyperus serotinus (Cyperus serotinus; chemical dosage 5 g/a): 5 (Growth inhibition rate; 91 to 100%); Herbicidal effects Barnyard grass ([2]; chemical dosage 5 g/a): 1 (Growth inhibition rate; 11 to 30%); Herbicidal effects Broad leaf ([3]; chemical dosage 5 g/a): 5 (Growth inhibition rate; 91 to 100%) |
| Cc1ccc(Oc2nnc(Cl)cc2O)c(C2CC2)c1 [Example 202] | 0 (Growth inhibition rate; 0 to 10%) | – | 4 (Growth inhibition rate; 71 to 90%) | – | 2 (Growth inhibition rate; 31 to 50%) | – | 5 (Growth inhibition rate; 91 to 100%) | – | – | – | – |
